In patent publication US12692290B2, “Modulators of tight junction permeability” (The University of Bath, priority 2020, dated 2026):
Several values for one entry are separate records, joined by “and”; a condition that tells them apart may be missing. Equal entries are not always repeated. Where two headings read alike, the source gives them in different places. Where a SMILES comes first, the peptide text is derived from it. [ ]: non-standard residue; d: D form.

Columns and labels:
[1] = tested on: Caco-2 monolayers; assay: TEER of Caco-2 monolayers after apical PIP peptide; assay type: cell-based, human; settings: 5 mM peptide for 180 min, then washout, 90 min recovery
[2] = target: PP1 (Homo sapiens, UniProt P62140); assay: Binding assay of biotinylated peptides or MYPT1 1-299 to immobilised His-tagged PP1
Protocol: (§1) His-tagged PP1 diluted in PBS-T was incubated in nickel coated wells for 1 hour and washed three times with PBS-T. Wells were incubated with increasing concentrations of biotinylated PIP peptides or amino acids 1-299 of MYPT1. Wells were washed again three times with PBS-T and incubated with streptavidin conjugated to Alexa Fluor 488 for 1 hour. Wells were washed as previously and the plate was read for fluorescence (Ex:480 nm, Em: 510 nm).

[3] = tested on: Caco-2 monolayers; assay: TEER of Caco-2 monolayers after apical PIP peptide; assay type: cell-based, human; settings: for TEER % of initial baseline at time of washout: 5 mM peptide for 180 min, Caco-2; for Effect on TEER compared to control (FIG. 1): 5 mM peptide, Caco-2 monolayer, one-way ANOVA with bonferroni post-test; for TEER reduced to % of baseline: 5 mM applied to apical surface of Caco-2 monolayers
Protocol: An immortalized human intestinal epithelial cell line (Caco-2) was maintained in DMEM/F12 (Gibco, Paisley, UK) supplemented with 10% FBS, 2 mM L-glutamine (Gibco) 100 U/mL penicillin and 100 μg/mL streptomycin (Gibco). Caco-2 cells were seeded at a density of 7×10^4/well on Transwell™ (Corning, NY) polyester membrane filters (12 mm diameter, 0.4 μm pore size). Feeding with fresh media (Life Technologies, Paisley, UK) was carried out every second day. Caco-2 monolayers with trans-epithelial electrical resistance (TEER) >350 Ω·cm^2 were used for these studies; such TEER values as measured using fixed paddle electrodes and a voltohmeter (World Precision Instruments, UK), were typically achieved between days 15-18 following seeding on Transwell™ filters.
Apical to basal flux of 10 mg/mL 4 kDa fluorescent dextran (Sigma) was performed to assess PIP peptide impact on paracellular permeability. Apical (200 μL) and basal (500 μL) compartment media were replaced with fresh HBSS and allowed to equilibrate for 30 min when TEER measurements were obtained to ensure monolayer integrity. After apical application of the fluorescent dextra the basal compartment volume was collected at set times (typically 0, 15, 30 60, 90, 120 and 180 min) and replaced with fresh HBSS each time. Apical and basal compartment fluorescence was determined using a Fluorostar Omega microplate reader (BMG Labtech, Ortenburg, Germany). After 3 h, the apical compartment fluorescent dextran/peptide solution was removed and replaced with PBS and TEER values were recorded for a further 30 min to monitor monolayer recovery. TEER values were calculated by subtracting blank filter readings and normalized as a percentage of the initial TEER value for that monolayer.

[4] = target: MYPT1 binding to PP1; assay: MYPT1/PP1 binding assay in presence of increasing PIP peptide concentrations; settings: read-out: KI for inhibition of MYPT1 binding to PP1
Protocol: as §1
The binding assay with MYPT1 was repeated in the presence of increasing concentrations of PIP peptides to determine the competition between MYPT1 and the peptides.

[5] = tested on: occludin; assay: Western blot for occludin in lysates of Caco-2 monolayers; assay type: cell-based, human; settings: Caco-2 monolayers treated for 90 min
Protocol: (§2) Lysates of Caco-2 monolayers prepared using 200 μL RIPA buffer along with 10 μL protease and phosphatase inhibitors per well were placed in 1.5 mL Eppendorf tubes and centrifuged at 4000×g for 10 min with supernatants being removed and stored at −80° C. until separation using a 12% SDS-PAGE gel. Protein samples were mixed 1:1 with loading buffer and denatured by heating at 95° C. for 5 min with 20 μL being loaded for analysis. Separated proteins were transferred onto a nitrocellulose membrane at 30 V for 75 min. Membranes were blocked with 5% bovine serum albumin in TBS-T for 2 h prior to an overnight incubation at 4° C. with primary antibodies diluted in TBS-T. Membranes were thrice washed with TBS-T and then incubated with fluorescent-tagged secondary antibodies at room temperature for 2 h. Membranes were thrice washed with TBS-T and analysed using a Licor imaging system.

[6] = tested on: myosin light chain (MLC) phosphorylation; assay: Western blot, ratio of pMLC to total MLC in Caco-2 lysates; assay type: cell-based, human; settings: 5 mM peptide, Caco-2 monolayers
Protocol: as §2

Chain of PP1 (P62140 whole entry, the tested form may be a part): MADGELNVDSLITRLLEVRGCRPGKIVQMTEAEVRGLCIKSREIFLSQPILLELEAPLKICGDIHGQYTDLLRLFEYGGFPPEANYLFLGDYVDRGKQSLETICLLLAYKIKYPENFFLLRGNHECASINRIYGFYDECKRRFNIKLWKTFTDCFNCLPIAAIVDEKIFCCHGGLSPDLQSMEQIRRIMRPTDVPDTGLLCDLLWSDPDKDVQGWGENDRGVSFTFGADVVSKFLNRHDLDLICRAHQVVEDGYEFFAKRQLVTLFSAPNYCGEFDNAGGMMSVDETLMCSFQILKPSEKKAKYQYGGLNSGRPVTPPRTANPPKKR

Row | Molecule | TEER % of baseline 90 min after washout [1] [%] | Kd [2] [µM] | TEER % of initial baseline at time of washout [3] | Effect on TEER compared to control (FIG. 1) [3] | Ki [4] [µM] | occludin level % of control [5] [%] | ratio of pMLC to MLC compared to untreated control [6] | TEER reduced to % of baseline [3] [%] | Kd ([2]; derived from binding curves, read-out: KD for binding to PP1) [µM] | Kd ([2]; same assay, read-out: KD for binding to PP1) [µM]
1 | CC(C)[C@@H](NC(=O)[C@@H](CCCCN)NC(=O)[C@@H](Cc1ccccc1)NC(=O)[C@@H](CCCNC(=N)N)NC(=O)[C@H](N)CCCNC(=N)N)C(=O)N[C@H](CCCCN)C(=O)N[C@@H](C(=O)N[C@H](CCCCN)C(=O)N[C@H](CCCCN)C(=O)N[C@H](CCCNC(=N)N)C(=O)N[C@H](CCCCN)C(N)=O)[C@H](C)O [PIP250, H-rrfkvktkkrk-NH2, reference compound] (H-[dR][dR][dF][dK][dV][dK][dT][dK][dK][dR][dK]-NH2) | 54 | 610 | ~ 50% and 49% | significantly different from control | 155 | 65.8 | significantly increased | – | – | –
2 | CC(C)[C@@H](NC(=O)[C@@H](CCCCN)NC(=O)[C@@H](C)NC(=O)[C@@H](CCCNC(=N)N)NC(=O)[C@H](N)CCCNC(=N)N)C(=O)N[C@H](CCCCN)C(=O)N[C@@H](C(=O)N[C@H](CCCCN)C(=O)N[C@H](CCCCN)C(=O)N[C@H](CCCNC(=N)N)C(=O)N[C@H](CCCCN)C(N)=O)[C@H](C)O [PIP251, H-rrakvktkkrk-NH2] (H-[dR][dR][dA][dK][dV][dK][dT][dK][dK][dR][dK]-NH2) | 94 | 1280 | 58% | significantly different from control | – | 84.1 | increased the ratio of pMLC to MLC, however to a lesser extent than the parent PIP250 | 62.7 | – | –
3 | C[C@H](O)[C@@H](NC(=O)[C@@H](CCCCN)NC(=O)[C@@H](C)NC(=O)[C@@H](CCCCN)NC(=O)[C@@H](Cc1ccccc1)NC(=O)[C@@H](CCCNC(=N)N)NC(=O)[C@H](N)CCCNC(=N)N)C(=O)N[C@H](CCCCN)C(=O)N[C@H](CCCCN)C(=O)N[C@H](CCCNC(=N)N)C(=O)N[C@H](CCCCN)C(N)=O [PIP252, H-rrfkaktkkrk-NH2] (H-[dR][dR][dF][dK][dA][dK][dT][dK][dK][dR][dK]-NH2) | 70 | 724 | 55% | significantly different from control | – | 61.4 | increased the ratio of pMLC to MLC, however to a lesser extent than the parent PIP250 | 66 | – | –
4 | CC(C)[C@@H](NC(=O)[C@@H](CCCCN)NC(=O)[C@@H](CC(=O)O)NC(=O)[C@@H](CCCNC(=N)N)NC(=O)[C@H](N)CCCNC(=N)N)C(=O)N[C@H](CCCCN)C(=O)N[C@@H](C(=O)N[C@H](CCCCN)C(=O)N[C@H](CCCCN)C(=O)N[C@H](CCCNC(=N)N)C(=O)N[C@H](CCCCN)C(N)=O)[C@H](C)O [PIP253, H-rrdkvktkkrk-NH2] (H-[dR][dR][dD][dK][dV][dK][dT][dK][dK][dR][dK]-NH2) | – | – | – | not significant | – | – | did not significantly increase | 88 | – | –
5 | C[C@H](O)[C@@H](NC(=O)[C@@H](CCCCN)NC(=O)[C@@H](CC(=O)O)NC(=O)[C@@H](CCCCN)NC(=O)[C@@H](Cc1ccccc1)NC(=O)[C@@H](CCCNC(=N)N)NC(=O)[C@H](N)CCCNC(=N)N)C(=O)N[C@H](CCCCN)C(=O)N[C@H](CCCCN)C(=O)N[C@H](CCCNC(=N)N)C(=O)N[C@H](CCCCN)C(N)=O [PIP254, H-rrfkdktkkrk-NH2] (H-[dR][dR][dF][dK][dD][dK][dT][dK][dK][dR][dK]-NH2) | – | – | – | not significant | – | – | did not significantly increase | 85 | – | –
6 | MYPT11-299: amino acids 1-299 of MYPT1 (protein, UniProt O14974 1-299, looked up, fragment) MKMADAKQKRNEQLKRWIGSETDLEPPVVKRQKTKVKFDDGAVFLAACSSGDTDEVLKLLHRGADINYANVDGLTALHQACIDDNVDMVKFLVENGANINQPDNEGWIPLHAAASCGYLDIAEFLIGQGAHVGAVNSEGDTPLDIAEEEAMEELLQNEVNRQGVDIEAARKEEERIMLRDARQWLNSGHINDVRHAKSGGTALHVAAAKGYTEVLKLLIQAGYDVNIKDYDGWTPLHAAAHWGKEEACRILVDNLCDMEMVNKVGQTAFDVADEDILGYLEELQKKQNLLHSEKRDKKS | – | – | – | – | – | – | – | – | 0.05 | 0.049
